Assays:
[1] = system: Klf4 gene; assay: Klf4 gene expression in CD8 T cells treated with APTO-253; type: cell-based, mice; conditions: 3 μM APTO-253 for 3 days (72 hours) during activation; compared to PBS-treated CD8 T cells
Protocol: (§1) Accordingly, in the same manner as above, after separating naïve CD8 T cells, naïve CD8 T cells were seeded on a plate coated with anti-CD3 antibody and in the process of activation, anti-CD28 antibody (2 μg/ml) and mIL-2 (100 U/ml) was treated with 3 μM of APTO-253 (MedChemExpress, LLC). Then, it was cultured for 72 hours in a 37° C. 5% CO2 cell incubator. After completion of the culture, the cells were transferred to a 15 ml centrifuge tube, and the volume was adjusted to 3 ml by adding RPMI medium. After that, 3 ml of Histopaque (Sigma) was carefully placed in the lower layer. Then, centrifugation was carried out for 30 minutes at 25° C. at 2,000 rpm, and at this time, acceleration and deceleration were set to a minimum. After centrifugation, the culture solution of the upper layer was removed, and the cells present at the interface were recovered, transferred to a 15 ml centrifuge tube, resuspended in 10 ml of PBS, and centrifuged for 5 minutes at 4° C. and 1,500 rpm. After centrifugation, the supernatant was removed, the cell pellet was washed once more with 10 mL of PBS and centrifuged for 5 minutes at 4° C. and 1,500 rpm. After centrifugation, the supernatant was removed, the cell pellet was resuspended in an appropriate amount of PBS, and the cells were counted. […]

[2] = system: MC38 cancer cells; assay: Mouse tumor model: MC38 in Rag2 KO mice given CD8 T cells treated with APTO-253; conditions: 5×10^5 CD8 T cells treated ex vivo with APTO-253 for 3 days, i.v. the day after 3×10^5 MC38; until day 15; vs PBS-treated CD8 T cells
Protocol: as §1

[3] = system: CD8 T cells from OT-I transgenic mice; assay: In vitro exhaustion experiment: repeated OVA peptide stimulation of CD8 T cells, gene expression by qRT-PCR; type: cell-based; conditions: repeated stimulation+IL-21 treatment group, OVA peptide 10 ng/ml for 5 days
Protocol: To this end, the present inventors specifically isolated CD8 T cells from OT-I transgenic mice having OVA (ovalbumin)-peptide-specific T cell receptor (TCR) and repeatedly treated the OVA peptide for 5 days. All experimental sets were treated with IL-15 (5 ng/ml) and IL-7 (5 ng/ml) to increase the viability of CD8 T cells. After treatment with OVA peptide (10 ng/ml) and washing the next day, stimulation was repeatedly applied for 5 days in such a way that cytokines and OVA peptide were treated with the same composition again (repeated stimulation treatment group). At this time, as a control group, only a cytokine-treated group without OVA peptide treatment and a single stimulation treatment group in which OVA peptide (10 ng/ml) was treated for 2 days and washed, and then only cytokine was treated for 3 days were added. In addition, a set treated with IL-21, which is known to help activate CD8 T cells, was also added (repetitive stimulation+IL-21 treated group) (FIG. 1A). After 5 days, live CD8 T cells were isolated using a cell sorter, RNA was extracted, reverse transcribed into cDNA, and the expression levels of various genes were confirmed by qRT-PCR. […]

Row | Compound | Klf4 gene expression level in CD8 T cells [1] | tumor growth (tumor volume) [2] | expression of the Klf4 gene [3] | expression of the Tox gene ([3]; compared with repeated stimulation group)
1 | Cc1[nH]c2ccc(F)cc2c1-c1nc2c3cccnc3c3ncccc3c2[nH]1 [APTO-253, 2-(5-fluoro-2-methyl-1H-indol-3-yl)-1H-imidazo[4,5-f][1,10]phenanthroline] | increased Klf4 gene expression level | decreased tumor growth |  | 
2 | IL-21: cytokine known to help activate CD8 T cells |  |  | significantly increased | decreased
